Counter-ions that a name gives are not always drawn. Like-named read-outs stand apart in the source and are kept apart here.
Experiments:
Format in all cases: in vivo
[1] = system: Myzus persicae; experiment: Test for control efficacy on Myzus persicae (foliar application, Chinese cabbage); conditions: 144 h, foliar application to potted Chinese cabbage plants, 6 days after application, read-out: control efficacy (control rate), activity level
Text: Test for control efficacy on Myzus persicae Chinese cabbage plants were planted in plastic pots (diameter: 8 cm, height: 8 cm), Green peach aphids (Myzus persicae) were propagated on the plants, and the number of surviving Green peach aphids in each pot was counted. The condensed heterocyclic compounds represented by the general formula (1) of the present invention or salts thereof were separately dispersed in water and diluted to 500 ppm. The agrochemical dispersions were applied to the foliage of the potted Chinese cabbage plants. After the plants were air-dried, the pots were kept in a greenhouse. At 6 days after the foliar application, the number of surviving Green peach aphids on the Chinese cabbage plant in each pot was counted, the control rate was calculated according to the formula shown below, and the control efficacy was evaluated according to the criteria shown below. Control rate=100−{(T×Ca)/(Ta×C)}×100 [Math. 1] Ta: the number of survivors before the foliar application in a treatment plot T: the number of survivors after the foliar application in a treatment plot Ca: the number of survivors before the foliar application in a non-treatment plot C: the number of survivors after the foliar application in a non-treatment plot Criteria A: the control rate is 100%. B: the control rate is 90 to 99%. C: the control rate is 80 to 89%. D: the control rate is 50 to 79%.

[2] = system: Laodelphax striatellus; experiment: Insecticidal test on Laodelphax striatellus (rice seedling dip); conditions: 192 h, read-out: insecticidal efficacy (corrected mortality rate), activity level
Text: Insecticidal Test on Laodelphax striatellus
The condensed heterocyclic compounds represented by the general formula (1) of the present invention or salts thereof were separately dispersed in water and diluted to 500 ppm. Rice plant seedlings (variety: Nihonbare) were dipped in the agrochemical dispersions for 30 seconds. After air-dried, each seedling was put into a separate glass test tube and inoculated with ten 3rd-instar larvae of Laodelphax striatellus, and then the glass test tubes were capped with cotton plugs. At 8 days after the inoculation, the numbers of surviving larvae and dead larvae were counted, the corrected mortality rate was calculated according to the formula shown below, and the insecticidal efficacy was evaluated according to the criteria shown below. Corrected mortality rate (%)=100×(Survival rate in a non-treatment plot−Survival rate in a treatment plot)/Survival rate in a non-treatment plot [Math. 2] Corrected Mortality Rate A: the corrected mortality rate is 100%.

[3] = system: Plutella xylostella; experiment: Insecticidal test on Plutella xylostella (dip of Chinese cabbage seedlings with laid eggs); conditions: 144 h
Description: Insecticidal Test on Plutella xylostella
Adults of Plutella xylostella were released onto Chinese cabbage seedlings and allowed to lay eggs thereon. […] After air-dried, the seedlings were kept in a thermostatic chamber at 25° C. […] This test was conducted in triplicate using 10 adults of Plutella xylostella per plot. Corrected mortality rate (%)=100×(Number of hatched larvae in a non-treatment plot−Number of hatched larvae in a treatment plot)/Number of hatched larvae in a non-treatment plot [Math. 3]

[4] = 500 ppm, rice seedlings dipped 30 seconds, ten 3rd-instar larvae, 8 days after inoculation
[5] = 500 ppm, seedlings with laid eggs dipped about 30 seconds, 25° C., 6 days after dip treatment, criteria of Test Example 2, read-out: insecticidal efficacy (corrected mortality rate), activity level
[6] = read-out: insecticidal efficacy (corrected mortality rate), activity level

CCS(=O)(=O)c1cc2cc(Cl)ccc2nc1-c1[nH]c2cc(C(F)(F)F)cnc2c1F [Compound 1-3, 2-(6-chloro-3-ethylsulfonyl-quinolin-2-yl)-3-fluoro-6-trifluoromethyl-1H-pyrrolo[3,2-b]pyridine]
100%: pest or weed control at 500 ppm [1] | mortality at 500 ppm [2, 4] | mortality at 500 ppm [3, 5]

CCOC(=O)Nc1ccc2cc(S(=O)(=O)CC)c(-c3[nH]c4cc(C(F)(F)F)cnc4c3F)nc2c1 [Compound 1-13, 2-(7-ethoxycarbonylamino-3-ethylsulfonyl-quinolin-2-yl)-3-fluoro-6-trifluoromethyl-1H-pyrrolo[3,2-b]pyridine]
100%: pest or weed control at 500 ppm [1] | mortality at 500 ppm [2] | mortality at 500 ppm [3, 6]

CCS(=O)(=O)c1cc2cc(Cl)ccc2nc1-c1[nH]c2cc(C(F)(F)F)cnc2c1Cl [Compound 1-44, 3-chloro-2-(6-chloro-3-ethylsulfonyl-quinolin-2-yl)-6-trifluoromethyl-1H-pyrrolo[3,2-b]pyridine]
100%: pest or weed control at 500 ppm [1] | mortality at 500 ppm [2, 4] | mortality at 500 ppm [3, 5]

CCS(=O)(=O)c1cc2cc(Cl)ccc2nc1-c1c(F)c2ncc(C(F)(F)F)cc2n1C(C)=O [Compound 2-1, 1-acetyl-2-(6-chloro-3-ethylsulfonyl-quinolin-2-yl)-3-fluoro-6-trifluoromethyl-1H-pyrrolo[3,2-b]pyridine]
100%: pest or weed control at 500 ppm [1] | mortality at 500 ppm [2, 4] | mortality at 500 ppm [3, 5]

CCSc1cc2cc(Cl)ccc2nc1-c1cc2ncc(C(F)(F)F)cc2n1C(=O)OC(C)(C)C [Compound 2-41, 1-(tert-butoxycarbonyl)-2-(6-chloro-3-ethylthio-quinolin-2-yl)-6-trifluoromethyl-1H-pyrrolo[3,2-b]pyridine]
100%: pest or weed control at 500 ppm [1] | mortality at 500 ppm [2, 4] | mortality at 500 ppm [3, 5]

CCS(=O)(=O)c1cc2cc(Cl)ccc2nc1-c1cc2ncc(C(F)(F)F)cc2n1C(=O)OC(C)(C)C [Compound 2-42, 1-(tert-butoxycarbonyl)-2-(6-chloro-3-ethylsulfonyl-quinolin-2-yl)-6-trifluoromethyl-1H-pyrrolo[3,2-b]pyridine]
100%: pest or weed control at 500 ppm [1] | mortality at 500 ppm [2, 4] | mortality at 500 ppm [3, 5]

CCOC(=O)Nc1ccc2cc(S(=O)(=O)CC)c(-c3c(F)c4ncc(C(F)(F)F)cc4n3C(=O)OC(C)(C)C)nc2c1 [Compound 2-49, 1-(tert-butoxycarbonyl)-2-(7-ethoxycarbonylamino-3-ethylsulfonyl-quinolin-2-yl)-3-fluoro-6-trifluoromethyl-1H-pyrrolo[3,2-b]pyridine]
100%: pest or weed control at 500 ppm [1] | mortality at 500 ppm [2] | mortality at 500 ppm [3, 6]

CCS(=O)(=O)c1cc2ccc(Br)cc2nc1-c1c(Cl)c2ncc(C(F)(F)F)cc2n1C(=O)OC(C)(C)C [Compound 2-61, 1-(tert-butoxycarbonyl)-2-(7-bromo-3-ethylsulfonyl-quinolin-2-yl)-3-chloro-6-trifluoromethyl-1H-pyrrolo[3,2-b]pyridine]
100%: pest or weed control at 500 ppm [1] | mortality at 500 ppm [2, 4] | mortality at 500 ppm [3, 5]

CCS(=O)(=O)c1cc2ccc(Br)cc2nc1-c1c(Cl)c2ncc(C(F)(F)F)cc2n1COC [Compound 2-65, 1-methoxymethyl-2-(7-bromo-3-ethylsulfonyl-quinolin-2-yl)-3-chloro-6-trifluoromethyl-1H-pyrrolo[3,2-b]pyridine]
100%: pest or weed control at 500 ppm [1] | mortality at 500 ppm [2, 4] | mortality at 500 ppm [3, 5]

CCS(=O)(=O)c1cc2ccc(C=O)cc2nc1-c1c(Cl)c2ncc(C(F)(F)F)cc2n1C(=O)OC(C)(C)C [Compound 2-97, 1-(tert-butoxycarbonyl)-2-(7-formyl-3-ethylsulfonyl-quinolin-2-yl)-3-chloro-6-trifluoromethyl-1H-pyrrolo[3,2-b]pyridine]
100%: pest or weed control at 500 ppm [1] | mortality at 500 ppm [2, 4] | mortality at 500 ppm [3, 5]

C=Cc1ccc2cc(S(=O)(=O)CC)c(-c3c(Cl)c4ncc(C(F)(F)F)cc4n3C(=O)OC(C)(C)C)nc2c1 [Compound 2-98, 1-(tert-butoxycarbonyl)-2-(7-vinyl-3-ethylsulfonyl-quinolin-2-yl)-3-chloro-6-trifluoromethyl-1H-pyrrolo[3,2-b]pyridine]
100%: pest or weed control at 500 ppm [1] | mortality at 500 ppm [2, 4] | mortality at 500 ppm [3, 5]

CCS(=O)(=O)c1cc2cc(Cl)ccc2nc1-c1cc2ncc(C(F)(F)F)cc2[nH]1 [Compound 4-3, 2-(6-chloro-3-ethylsulfonyl-quinolin-2-yl)-6-trifluoromethyl-1H-pyrrolo[3,2-b]pyridine trifluoroacetate]
100%: pest or weed control at 500 ppm [1] | mortality at 500 ppm [2, 4] | mortality at 500 ppm [3, 5]

Reference: patent US11124507B2, “1H-pyrrolopyridine compound, N-oxide thereof or salt thereof, agricultural and horticultural insecticide comprising the compound, and method for using the insecticide” (Nihon Nohyaku Co., Ltd., priority 2016, dated 2021)
